# Values joined by “and” are separate entries in the source; they are usually repeats but may differ in a detail not shown here. Equal values may be shown once.
# Legend:
# [1] = test system: CHO cells over-expressing human wild-type APP (CHO/APPwt); assay: Aβ and sAPPα production in cultured media of CHO/APPwt cells by ELISA (24 hours); type: cell-based, Chinese hamster; conditions: 20 μg/mL
# Protocol: (§1) Cell Culture—Chinese hamster ovary (CHO) cells engineered to express wild-type human APP (CHO/APPwt cells) or Swedish mutant human APP (CHO/APPswe cells) were kindly provided by Dr. Stefanie Hahn and Dr. Sascha Weggen (University of Heinrich Heine, Dusseldorf, Germany). As described previously (Obregon et al., 2012), these cells were cultured in Dulbecco's modified Eagle's medium (DMEM) with 10% fetal bovine serum (FBS), 1 mM sodium pyruvate, and 100 units/mL of penicillin and streptomycin.
# To confirm the binding of APPsweBBP with BACE1, CHO/APPwt cells were plated in 8-well chambers (5×10^5/well), incubated with TAT-APPsweBBP-biotin or APPsweBBP-biotin at 20 μM for 30 minutes, fixed with 4% paraformaldehyde for 20 minutes, washed and permeabilized with 0.5% Triton X-100. Following application of blocking buffer, these cells were stained with mouse anti-BACE1 and rabbit anti-biotin antibodies overnight at 4° C. for immunocytochemistry analysis. […] The cultured media were collected for Aβ analysis by enzyme-linked immunosorbent assay (ELISA) and sAPPα analysis by ELISA and Western blot (WB). Cell lysates were also prepared for analysis of APP amyloidogenic processing by WB.
# (§2) ELISA—Mouse brains were homogenized in ice-cold lysis buffer for 30 seconds using a Minilys tissue homogenizer (Bertin Technologies, Montigny-le-Bretonneux, France) set at high speed, allowed to stand for 15 minutes at 4° C., and centrifuged at 15,000 rpm for 30 minutes. Soluble Aβ1-40/42 species and sAPPα were directly detected in cultured cell media or brain homogenates using the Aβ1-40/42 (Invitrogen) and sAPPα ELISA kits (IBL-America, Minneapolis, Minn., USA).
# (§3) To further examine the ability of the Swedish mutant APP BACE1 binding peptide/Tat fusion peptides to decrease Aβ production, CHO cells overexpressing either human wild-type APP (CHO/APPwt cells) or Swedish mutant APP (hereinafter referred to as “CHO/APPswe cells”) are treated with a variety of APP-based BACE1 inhibitor peptides, as shown in Table 1 and Table 2. Aβ production is determined using ELISA.
# [2] = test system: CHO cells over-expressing human Swedish mutant APP (CHO/APPswe); assay: Aβ and sAPPα production in cultured media of CHO/APPswe cells by ELISA; type: cell-based, Chinese hamster; conditions: 20 μg/mL, 24 hours
# Protocol: as §1
# To confirm the binding of APPsweBBP with BACE1, CHO/APPwt cells were plated in 8-well chambers (5×10^5/well), incubated with TAT-APPsweBBP-biotin or APPsweBBP-biotin at 20 μM for 30 minutes, fixed with 4% paraformaldehyde for 20 minutes, washed and permeabilized with 0.5% Triton X-100. Following application of blocking buffer, these cells were stained with mouse anti-BACE1 and rabbit anti-biotin antibodies overnight at 4° C. for immunocytochemistry analysis. In order to determine the inhibitory effects of TAT-APPsweBBP on BACE1-mediated APP β-cleavage and subsequent Aβ production, both CHO/APPwt and CHO/APPswe cells were plated in 24 well-plates (3×10^5/well) and treated with TAT-APPsweBBP at 0-20 μM for 24 hours. The cultured media were collected for Aβ analysis by enzyme-linked immunosorbent assay (ELISA) and sAPPα analysis by ELISA and Western blot (WB). Cell lysates were also prepared for analysis of APP amyloidogenic processing by WB.
# as §2, §3
# BACE1 = BACE1 (Homo sapiens, UniProt P56817); assay: BACE1 activity assay (FRET, cell-free); type: biochemical; set-up: purchased Pan Vera Co., Madison, Wis., USA; conditions: peptide final concentration 20 μM, 90 minutes, room temperature
# Sequence of BACE1 (P56817 46-501): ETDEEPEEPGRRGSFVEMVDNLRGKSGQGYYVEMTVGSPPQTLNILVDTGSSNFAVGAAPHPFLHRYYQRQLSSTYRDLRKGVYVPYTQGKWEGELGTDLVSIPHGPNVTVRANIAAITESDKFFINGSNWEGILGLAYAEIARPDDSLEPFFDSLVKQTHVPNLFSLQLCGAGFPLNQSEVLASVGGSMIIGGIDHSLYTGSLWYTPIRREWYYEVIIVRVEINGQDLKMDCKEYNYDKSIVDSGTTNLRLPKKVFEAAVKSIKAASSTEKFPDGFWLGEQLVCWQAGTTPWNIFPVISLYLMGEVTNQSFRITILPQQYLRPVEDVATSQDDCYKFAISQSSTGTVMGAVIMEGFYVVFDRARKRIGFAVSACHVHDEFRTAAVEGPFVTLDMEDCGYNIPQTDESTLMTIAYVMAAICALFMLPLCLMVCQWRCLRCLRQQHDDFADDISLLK
# Protocol: BACE1 Activity Assay—The BACE1 inhibiting activity of APP-based BACE1 site binding peptides were determined using a fluorescence resonance energy transfer (FRET) assay (Pan Vera Co., Madison, Wis., USA), which employs a recombinant baculovirus-expressed BACE1 and a specific substrate (Rh-[…]-quencher) that is based on the APPswe mutation. This specific peptide substrate becomes highly fluorescent upon enzymatic cleavage. A mixture of 10 μL of BACE1 (1.0 U/mL in 50 mM Tris, pH7.5, 10% glycerol), 10 μL of FRET-substrate, and 10 μL of the various APP-based BACE1 site binding peptides (final concentration 20 μM) were incubated for 90 minutes in the dark at room temperature. Then, 10 μL of BACE1 stop buffer (2.5 M sodium acetate) was added to the mixture. Fluorescence was read using a fluorometer, with excitation at 545 nm and emission at 585 nm.
# As a required enzyme for the generation of neurotoxic Aβ from APP, BACE1 is well established as an important mediator of AD β-amyloid pathology. As such, it has become an important target for new disease modifying therapeutics. However, since BACE1 also has important physiological roles, abolishment of the enzyme or its activity may lead to deleterious side effects as evidenced by numerous failed clinical trials discussed previously. […] Since previous studies have established a close relationship between α-helix structure and peptide-protein (or protein-protein) interactions (Azzarito, 2013; Rao et al., 2013), several APP based peptides were synthesized that might serve as a preferable substrate for BACE1. Importantly, these peptides were free of the Aβ-containing segment and, thus, cannot be amyloidogenic. In theory, these could be used to “hijack” the BACE1 processing of endogenous APP and lead to a decrease in cerebral Aβ. These BACE1 substrates and controls were incubated with recombinant BACE1 and percent of inhibition of the enzyme was calculated. […] These findings indicate that the α-helical TAT fusion domain may help to promote selective APPsweBBP proteolysis by BACE1, yielding substrate competition against human wild-type APP.
# CHO/APPwt cells = assay: Aβ production in CHO/APPwt cells by ELISA (Example 1, 4 hours); type: cell-based, Chinese hamster; conditions: 20 μg/mL
# Protocol: To examine the effects of various Swedish Tat fusion peptides on Aβ production, human wild-type amyloid precursor protein (APP) is overexpressed in Chinese hamster ovary cells (hereinafter referred to as CHO/APPwt cells), and the cells are treated with either PBS control (Phosphate buffered saline); Swedish peptide-1 (SwePep-1), […] (also referred herein as “APPsweBBP1”) (SEQ ID NO: 5); Swedish peptide-2 (SwePep-2) (also referred herein as “APPsweBBP”), […] (SEQ ID NO: 1); Swedish Tat fusion peptide-1 (SweTatPep-1), […] (also referred herein as “APPsweBBP/TTD1”) (SEQ ID NO: 6); or Swedish Tat fusion peptide-2 (SweTatPep-2) (also referred herein as “APPsweBBP/TTD2” and “TAT-APPsweBBP”), […] (SEQ ID NO: 3). APPsweBBP is a truncated fragment of APPswe spanning 12 amino acid residues (Glu665-Arg676). TAT, an 11-amino acid-residue protein-transduction domain derived from the HIV-1 transactivator of transcription protein, was conjugated at the C-terminus of APPsweBBP and biotin was conjugated at the N-terminus.
# Following treatment, Aβ production is determined utilizing ELISA and the results illustrated in FIG. 1A. SweTatPep-2, SwePep-2, SwePep-1 and SweTatPep-1 each reduce Aβ40,42 by 63-65%, 30-33%, 31-34% and 37-38%, respectively.
sequence,measurement,setting,value
YGRKKRRQRRRIKTEEISEVKMDAEFR (human-virus fusion) [APPwtBBP/TTD1],Secreted Aβ40 (ng/mg; mean ± SD),[1],9.32 ± 0.68 ng/mg
same,Secreted Aβ42 (ng/mg; mean ± SD),[1],1.01 ± 0.052 ng/mg
same,Secreted sAPPα (ng/mg; mean ± SD),[1],4688.12 ± 109.65 ng/mg
same,Secreted Aβ40 (ng/mg; mean ± SD),[2],64.21 ± 12.12 ng/mg
same,Secreted Aβ42 (ng/mg; mean ± SD),[2],7.82 ± 0.67 ng/mg
same,Secreted sAPPα (ng/mg; mean ± SD),[2],229.45 ± 12.73 ng/mg
EISEVKMDAEFR (listed as Homo sapiens) [APPwtBBP],Secreted Aβ40 (ng/mg; mean ± SD),[1],10.89 ± 0.76 ng/mg
same,Secreted Aβ42 (ng/mg; mean ± SD),[1],1.18 ± 0.051 ng/mg
same,Secreted sAPPα (ng/mg; mean ± SD),[1],4762.21 ± 164.89 ng/mg
same,Secreted Aβ40 (ng/mg; mean ± SD),[2],59.84 ± 11.23 ng/mg
same,Secreted Aβ42 (ng/mg; mean ± SD),[2],9.78 ± 1.07 ng/mg
same,Secreted sAPPα (ng/mg; mean ± SD),[2],201.65 ± 11.54 ng/mg
same,% of inhibition (mean ± SD) of BACE1,BACE1,16.23%
EVKMDAEFR (listed as Homo sapiens) [APPwtBBP3],Secreted Aβ40 (ng/mg; mean ± SD),[1],11.43 ± 1.01 ng/mg
same,Secreted Aβ42 (ng/mg; mean ± SD),[1],1.09 ± 0.061 ng/mg
same,Secreted sAPPα (ng/mg; mean ± SD),[1],4699.78 ± 178.43 ng/mg
same,Secreted Aβ40 (ng/mg; mean ± SD),[2],61.36 ± 8.34 ng/mg
same,Secreted Aβ42 (ng/mg; mean ± SD),[2],10.93 ± 1.98 ng/mg
same,Secreted sAPPα (ng/mg; mean ± SD),[2],199.83 ± 14.65 ng/mg
same,% of inhibition (mean ± SD) of BACE1,BACE1,4.89 ± 0.06%
EVNLDAEFR (listed as Homo sapiens) [APPsweBBP3],Secreted Aβ40 (ng/mg; mean ± SD),[1],10.23 ± 0.73 ng/mg
same,Secreted Aβ42 (ng/mg; mean ± SD),[1],0.92 ± 0.041 ng/mg
same,Secreted sAPPα (ng/mg; mean ± SD),[1],4709.43 ± 123.74 ng/mg
same,Secreted Aβ42 (ng/mg; mean ± SD),[2],7.12 ± 0.84 ng/mg
same,Secreted sAPPα (ng/mg; mean ± SD),[2],231.26 ± 14.28 ng/mg
same,% of inhibition (mean ± SD) of BACE1,BACE1,14.32 ± 0.04%
YGRKKRRQRRREVNLDAEFR (human-virus fusion) [APPsweBBP/TTD3],Secreted Aβ40 (ng/mg; mean ± SD),[1],8.74 ± 0.55 ng/mg
same,Secreted Aβ42 (ng/mg; mean ± SD),[1],0.93 ± 0.048 ng/mg
same,Secreted sAPPα (ng/mg; mean ± SD),[1],5001.45 ± 271.34 ng/mg
same,Secreted Aβ40 (ng/mg; mean ± SD),[2],41.87 ± 5.76 ng/mg
same,Secreted Aβ42 (ng/mg; mean ± SD),[2],8.43 ± 0.95 ng/mg
same,Secreted sAPPα (ng/mg; mean ± SD),[2],211.37 ± 18.93 ng/mg
EISEVNLDAEFR (listed as Homo sapiens) [APPsweBBP2],Secreted Aβ40 (ng/mg; mean ± SD),[1],7.01 ± 1.02 ng/mg
same,Secreted Aβ42 (ng/mg; mean ± SD),[1],0.73 ± 0.034 ng/mg
same,Secreted sAPPα (ng/mg; mean ± SD),[1],5201.64 ± 119.63 ng/mg
same,Secreted Aβ40 (ng/mg; mean ± SD),[2],41.41 ± 8.43 ng/mg
same,Secreted Aβ42 (ng/mg; mean ± SD),[2],6.54 ± 0.85 ng/mg
same,Secreted sAPPα (ng/mg; mean ± SD),[2],253.56 ± 20.11 ng/mg
same,% of inhibition (mean ± SD) of BACE1,BACE1; 20 µM,~40% and 38.43%
same,"reduction of Aβ40,42",CHO/APPwt cells,30-33%
IKTEEISEVKMDAEFR (listed as Homo sapiens) [APPwtBBP1],Secreted Aβ40 (ng/mg; mean ± SD),[1],11.23 ± 0.89 ng/mg
same,Secreted Aβ42 (ng/mg; mean ± SD),[1],1.23 ± 0.043 ng/mg
same,Secreted sAPPα (ng/mg; mean ± SD),[1],4874.42 ± 174.56 ng/mg
same,Secreted Aβ40 (ng/mg; mean ± SD),[2],62.43 ± 9.43 ng/mg
same,Secreted Aβ42 (ng/mg; mean ± SD),[2],8.91 ± 0.83 ng/mg
same,Secreted sAPPα (ng/mg; mean ± SD),[2],217.35 ± 17.32 ng/mg
YGRKKRRQRRREISEVKMDAEFR (human-virus fusion) [APPwtBBP/TTD2],Secreted Aβ40 (ng/mg; mean ± SD),[1],6.53 ± 0.81 ng/mg
same,Secreted Aβ42 (ng/mg; mean ± SD),[1],0.68 ± 0.034 ng/mg
same,Secreted sAPPα (ng/mg; mean ± SD),[1],5291.14 ± 142.75 ng/mg
same,Secreted Aβ40 (ng/mg; mean ± SD),[2],40.32 ± 8.43 ng/mg
same,Secreted Aβ42 (ng/mg; mean ± SD),[2],6.78 ± 0.92 ng/mg
same,Secreted sAPPα (ng/mg; mean ± SD),[2],267.92 ± 15.88 ng/mg
same,% of inhibition (mean ± SD) of BACE1,BACE1,21.01 ± 1.42%
YGRKKRRQRRREVKMDAEFR (human-virus fusion) [APPwtBBP/TTD3],Secreted Aβ40 (ng/mg; mean ± SD),[1],10.12 ± 1.11 ng/mg
same,Secreted sAPPα (ng/mg; mean ± SD),[1],4699.15 ± 155.92 ng/mg
same,Secreted Aβ40 (ng/mg; mean ± SD),[2],57.45 ± 13.11 ng/mg
same,Secreted Aβ42 (ng/mg; mean ± SD),[2],9.56 ± 1.11 ng/mg
same,Secreted sAPPα (ng/mg; mean ± SD),[2],201.23 ± 21.23 ng/mg
YGRKKRRQRRRIKTEEISEVNLDAEFR (human-virus fusion) [APPsweBBP/TTD1],Secreted Aβ40 (ng/mg; mean ± SD),[1],8.93 ± 0.82 ng/mg
same,Secreted Aβ42 (ng/mg; mean ± SD),[1],0.95 ± 0.037 ng/mg
same,Secreted sAPPα (ng/mg; mean ± SD),[1],4901.54 ± 211.54 ng/mg
same,Secreted Aβ42 (ng/mg; mean ± SD),[2],7.98 ± 0.81 ng/mg
same,Secreted sAPPα (ng/mg; mean ± SD),[2],236.32 ± 13.09 ng/mg
same,"reduction of Aβ40,42",CHO/APPwt cells,37-38%
IKTEEISEVNLDAEFR (listed as Homo sapiens) [APPsweBBP1],Secreted Aβ40 (ng/mg; mean ± SD),[1],9.67 ± 0.84 ng/mg
same,Secreted Aβ42 (ng/mg; mean ± SD),[1],1.07 ± 0.054 ng/mg
same,Secreted sAPPα (ng/mg; mean ± SD),[1],4711.83 ± 201.45 ng/mg
same,Secreted Aβ40 (ng/mg; mean ± SD),[2],57.23 ± 11.65 ng/mg
same,Secreted Aβ42 (ng/mg; mean ± SD),[2],9.01 ± 1.07 ng/mg
same,Secreted sAPPα (ng/mg; mean ± SD),[2],211.43 ± 18.31 ng/mg
same,"reduction of Aβ40,42",CHO/APPwt cells,31-34%
